Test results: patent US5637624A, “Ring-substituted 2-amino-1,2,3,4-tetrahydronaphthalenes and 3-aminochromanes” (Eli Lilly and Company, priority 1993, dated 1997)
Structures can show the parent of a compound that is named as a salt. Where two headings read alike, the source gives them in different places.

Key:
[1] = molecular target: T1, 5-HT1A receptors (Rattus norvegicus, UniProt P19327); assay: Inhibition of 3H-8-OH-DPAT binding at 5-HT1A in vitro (rat cerebral cortex synaptosomal membranes); design: species or system Male Sprague-Dawley rats (cerebral cortex)
T1 construct: synaptosomal membranes isolated from cerebral cortex; from tissue; host or cells: cerebral cortex of male Sprague-Dawley rats, crude synaptosomal membranes
T1 sequence (P19327 1-422): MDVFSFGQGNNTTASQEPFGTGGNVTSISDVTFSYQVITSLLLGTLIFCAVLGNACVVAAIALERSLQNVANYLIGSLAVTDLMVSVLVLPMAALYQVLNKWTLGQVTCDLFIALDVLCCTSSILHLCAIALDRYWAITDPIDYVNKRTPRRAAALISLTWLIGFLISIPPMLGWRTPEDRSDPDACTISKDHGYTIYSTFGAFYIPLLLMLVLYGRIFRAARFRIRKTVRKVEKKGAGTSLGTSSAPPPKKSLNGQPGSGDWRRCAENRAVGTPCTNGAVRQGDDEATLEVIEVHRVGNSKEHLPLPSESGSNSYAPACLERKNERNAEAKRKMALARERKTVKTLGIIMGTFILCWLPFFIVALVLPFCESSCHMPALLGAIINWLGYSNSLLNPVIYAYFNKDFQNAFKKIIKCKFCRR
Experimental: This general procedure is set forth in Wong et al., J. Neural Transm. 71:207-218 (1988).
Male Sprague-Dawley rats (110-150 g) from Harlan Industries (Cumberland, Ind.) were fed a Purina Chow ad libitum for at least 3 days before being used in the studies. Rats were killed by decapitation. The brains were rapidly removed, and the cerebral cortices were dissected out at 4° C.
Brain tissues were homogenized in 0.32M sucrose. After centrifugation at 1000×g for 10 min and then at 17000×g for 20 min, a crude synaptosomal fraction was sedimented. The pellet was suspended in 100 vol of 50 mM Tris-HCl, pH 7.4, incubated at 37° C. for 10 min, and centrifuged at 50000×g for 10 min. The process was repeated and the final pellet was suspended in ice-chilled 50 mM Tris-HCl, pH 7.4. By the radioligand binding method, sites specifically labeled by tritiated 8-hydroxy-2-dipropylamino1,2,3,4-tetrahydronaphthalene (^3 H-8-OH-DPAT) have been identified as 5-HT1A receptors.
Binding of (hu 3H-8-OH-DPAT) was performed according to the previously described method [Wong et. al., J. Neural Transm. 64:251-269 (1985)]. Briefly, synaptosomal membranes isolated from cerebral cortex were incubated at 37° C. for 10 min. in 2 ml of 50 mM Tris-HCl, pH 7.4; 10 μM pargyline; 0.6 mM ascorbic acid; and 0.4 nM ^3 H-8-OH-DPAT. Binding was terminated by filtering samples under reduced pressure through glass fiber (GFB) filters. The filters were washed twice with 5 ml of ice cold buffer and placed in scintillation vials with 10 ml of PCS (Amersham/Searle) scintillation fluid. Radioactivity was measured with a liquid scintillation spectrometer. Unlabeled 8-OH-DPAT at 10 μM was also included in separate samples to establish non-specific binding. Specific binding of ^3 H-8-OH-DPAT is defined as the difference of radioactivity bound in the absence and in the presence of 10 μM unlabeled 8-OH-DPAT.

[2] = tested on: 5-hydroxyindoleacetic acid (5-HIAA), a metabolite of 5-HT, in whole brain; assay: Effectiveness by oral administration: decrease in brain concentration of 5-HIAA; format: in vivo, male Sprague-Dawley rats; details: p.o.; for minimal effective dose: Rattus norvegicus, po, 2 h, read-out: minimum effective dose when administered orally; for Percent Reduction over Control (5-HIAA) / 5-HIAA Concentration in Whole Brain: 2 hours; for 5-HIAA Concentration in Whole Brain: control 1.67 ± 0.08
Experimental: The activity of compounds of this invention when administered orally was determined and compared with literature compounds structurally related to the compounds of this invention. Thus, the test compound was administered to male Sprague-Dawley rats orally (p.o.), five rats being used in each test group. The rats were sacrificed two hours following p.o. administration, and the brain concentration of 5-hydroxyindoleacetic acid (5-HIAA), a metabolite of 5-HT, was measured.

[3] = Effectiveness by subcutaneous (s.c.) administration; format: in vivo; details: for minimal effective dose: sc, read-out: minimum effective dose when administered subcutaneously
[4] = Hygroscopicity observed on isolation of the salt; format: physicochemical; details: fumarate salt, recrystallized from ethanol/diethyl ether
Experimental: To a solution of water (60 mL) which contains methanesulfonic acid (0.16 mL, 2.33 mMol) was added 2-di-propylamino-8-methylthio-1,2,3,4-tetrahydronaphthalene (630 mg, 2.33 mMol). To this solution was added a solution of sodium metaperiodate (550 mg, 2.57 mMol) in water (10 mL), and the reaction mixture was stirred for two days at room temperature. The reaction mixture was made basic (NH4 OH) and extracted with dichloromethane. The organic extracts were combined, dried (Na2 SO4) and concentrated in vacuo to give the crude title compound as a light yellow oil. Purification by flash chromatography (3% methanol in dichloromethane+tr. NH4 OH) gave the desired product (580 mg, 85%) as a colorless oil. The fumarate salt was formed. […] Drying in a vacuum dessicator (60° C., 18 hours) gave a colorless glass (260 mg, m.p. =63° C.).

CCCN(CCC)[C@@H]1CCc2cccc(SC)c2[C@@H]1C (relative stereo) [Example 8, cis-1-Methyl-2-di-n-propylamino-8-thiomethyl-1,2,3,4-tetrahydronaphthalene]
IC50 ([1]; 0.4 nM 3H-8-OH-DPAT, rat cerebral cortex synaptosomal membranes, 37° C., 10 min, pH 7.4, read-out: IC50, 5HT1a (concentration required to inhibit the binding of 3H-8-OH-DPAT by 50%)): 297 nM

CCCN(CCC)C1CCc2cccc(SC)c2C1 (stereo not drawn) [Example 1, 2-Di-n-propylamino-8-thiomethyl1,2,3,4-tetrahydronaphthalene]
IC50 [1]: 0.3 nM
minimal effective dose [2]: ~1 mg/kg
Percent Reduction over Control (5-HIAA) ([2]; 0.1 mg/Kg): 0%
5-HIAA Concentration in Whole Brain ([2]; 0.1 mg/Kg): 1.56 ± 0.04 nmol/g
Percent Reduction over Control (5-HIAA) ([2]; 1 mg/Kg): 13%
5-HIAA Concentration in Whole Brain ([2]; 1 mg/Kg): 1.45 ± 0.03 nmol/g
Percent Reduction over Control (5-HIAA) ([2]; 10 mg/Kg): 25%
5-HIAA Concentration in Whole Brain ([2]; 10 mg/Kg): 1.25 ± 0.06 nmol/g
minimum effective dose relative to 8-OH-DPAT, oral ([2]; vs 8-OH-DPAT): about ten-fold less
minimal effective dose [3]: ~0.3 mg/kg
potency relative to 8-OH-DPAT, subcutaneous ([3]; vs 8-OH-DPAT): about ten-fold less potent

CCCN(CCC)C1CCc2cccc(SCC)c2C1 (stereo not drawn) [Example 2, 2-Di-n-propylamino-8-thioethyl-1,2,3,4-tetrahydronaphthalene]
IC50 [1]: 30.7 nM

CCCN(CCC)C1CCc2cccc(Sc3ccccc3)c2C1 (stereo not drawn) [Example 3, 2-Di-n-propylamino-8-thiophenyl-1,2,3,4-tetrahydronaphthalene]
IC50 [1]: 22.2 nM

CCCN(CCC)C1CCc2cccc(SCc3ccccc3)c2C1 (stereo not drawn) [Example 4, 2-Di-n-propylamino-8-thiobenzyl-1,2,3,4-tetrahydronaphthalene]
IC50 [1]: 2.8 nM

CCCN(CCC)C1CCc2cccc([S+](C)[O-])c2C1 (stereo not drawn) [Example 5, 2-Di-n-propylamino-8-methylsulfinyl-1,2,3,4-tetrahydronaphthalene]
IC50 [1]: 71.1 nM
hygroscopicity [4]: extremely hygroscopic

CCCN(CCC)C1CCc2cccc(S(C)(=O)=O)c2C1 (stereo not drawn) [Example 6, 2-Di-n-propylamino-8-methylsulfonyl-1,2,3,4-tetrahydronaphthalene]
IC50 [1]: 10 nM

CSc1cccc2c1CC(N(C)C)CC2 (stereo not drawn) [Example 7, 2-Dimethylamino-8-thiomethyl-1,2,3,4-tetrahydronaphthalene]
IC50 [1]: 21 nM

CCCN(CCC)C1CCc2cccc(O)c2C1 (stereo not drawn) [Example 8-OH-DPAT, 8-hydroxy-2-dipropylamino1,2,3,4-tetrahydronaphthalene, reference compound]
minimal effective dose [2]: ~10 mg/kg
Percent Reduction over Control (5-HIAA) ([2]; 0.1 mg/Kg): 0%
5-HIAA Concentration in Whole Brain ([2]; 0.1 mg/Kg): 1.62 ± 0.07 nmol/g
Percent Reduction over Control (5-HIAA) ([2]; 1 mg/Kg): 0%
5-HIAA Concentration in Whole Brain ([2]; 1 mg/Kg): 1.75 ± 0.05 nmol/g
Percent Reduction over Control (5-HIAA) ([2]; 10 mg/Kg): 16%
5-HIAA Concentration in Whole Brain ([2]; 10 mg/Kg): 1.40 ± 0.06 nmol/g
minimal effective dose [3]: ~0.03 mg/kg

CCCN(CCC)C1CCc2cccc(Sc3ccc(C)cc3)c2C1 (stereo not drawn) [Example 9]
IC50 [1]: 59 nM

CCCN(CCC)C1CCc2cccc(Sc3ccccn3)c2C1 (stereo not drawn) [Example 10]
IC50 [1]: 9 nM

CCCN(CCC)C1COc2cccc(SC)c2C1 (stereo not drawn) [Example 11, 3-(Di-n-propylamino)-5-methylthio-chromane hydrochloride]
IC50 [1]: 2.5 nM
